Source: patent US20110301192A1, “Inhibitors of Cyclin Kinase Inhibitor p21” (The regents of the University of California, priority 2008, published 2011)
Entries after “also recorded” stand apart in the source; their conditions may differ.

Tests used:
kidney cancer cell lines = experiment: MTT cytotoxic assay in kidney cancer cell lines (FIG. 8); type: cell-based; conditions: kidney cancer cells; 1, 10 or 20 μM in complete media; 48 hr
Experimental: The kidney cancer cells were incubated in serum-free media for 16 hr and treated with vehicle (DMSO) and serum-containing complete media (CM) alone or the indicated compounds (at 1, 10 or 20 μM) in CM. After 48 hr, the MTT assay was performed as described below. The visible absorbance of each well was quantified using a microplate reader.
(§1) A 200 μL aliquot of cells (1×10^3 cells in quiescent media) was added to a 96 well plate and incubated for 18 hr at 37° C. in a humidified incubator containing 5% CO2 in air. After incubation, each condition of small molecule ligands (No. 4, 7, and 10) was added into each well for 48 hr and for synergic assay of Doxorubicin, after incubation for 6 hr with compound No. 10, Doxorubicin dissolved in DMSO was added to each of the 96 wells and incubated for 42 hr. Control cultures were treated with DMSO. After incubation, a 20 μL MTT solution (5 mg/mL in phosphate buffer) was added to each well and the incubation continued for 4 hr, after which time the solution in each well was carefully removed. The blue crystalline precipitate in each well was dissolved in DMSO 200 μL). The visible absorbance at 560 nm of each well was quantified using a microplate reader.

ACHN and A-498 cells [1] = experiment: MTT cytotoxic assay (cell viability) in RCC cell lines; type: cell-based, human; conditions: 10, 50 and 100 μM in complete media, 48 hr
Experimental: After 48 hr, the MTT assay was performed as described below. The visible absorbance of each well was quantified using a microplate reader.
ACHN and A498 human RCC cells (from ATCC) were maintained in MEM 1× media supplemented with 10% fetal bovine serum, 2 mM L-glutamine, 1 mM sodium pyruvate, 0.1 mM non-essential amino acid, and 0.75% sodium bicarbonate at 37° C. in a humidified incubator containing 5% CO2 in air.
as §1

p21 [2] = target: T1, p21 (Homo sapiens, UniProt P38936); experiment: Immunoblotting of p21 protein levels in RCC cells; type: cell-based; conditions: serum-starved ACHN and A-498 cells; 10, 50 and 100 μM; immunoblot
Text: (§2) Chemiluminescence was detected using enhanced ECL.

p27 = experiment: Immunoblotting of p27 protein levels in RCC cells; type: cell-based, human; conditions: all concentrations examined (10, 50, 100 μM); immunoblot
Text: as §2

p57 = experiment: Immunoblotting of p57 protein levels in RCC cells; type: cell-based, human; conditions: all concentrations examined (10, 50, 100 μM); immunoblot
Text: as §2

[3] = target: T2, GST-tagged p21 recombinant protein (GST-p21) (Homo sapiens, UniProt P38936); experiment: Two-step OBOC bead screening with recombinant GST-p21; type: binding; conditions: OBOC beads, GST-p21 probe, GST-alone subtraction
T2 construct: purchased ProSpec-Tany TechnoGene Ltd. (Rehovot, Israel)
Experimental: OBOC beads tethered with small molecule ligands were incubated with recombinant GST-p21 (or GST alone as control) and incubated with anti-GST antibodies conjugated with alkaline phosphatase. Blue beads in stage 2 were discarded and the true positive beads (i.e., clear beads in stage 2 which indicate binding only to p21) were picked up and submitted for MS decoding.
A two-step screening of the small molecule OBOC combinatorial library was performed using GST-tagged p21 recombinant protein (GST-p21) from ProSpec-Tany TechnoGene Ltd. (Rehovot, Israel) (FIG. 2). Screening was conducted in small disposable chromatography columns. Each screening used 25,000-30,000 beads that were first blocked with 0.1% BSA in PBS with 0.1% Tween 20 (PBST). In Stage 1 of the procedure, the beads were incubated with a 1:10,000 dilution of GST-p21, washed, incubated with anti-GST antibody conjugated with alkaline phosphatase (anti-GST-AP), washed, and incubated with the phosphatase substrate 5-bromo-4-chloro-3-indolyl-phosphate (BCIP). Beads became blue and were selected for next step. Stage 2 of the procedure was to remove the false positive beads that are interacting with GST and anti-GST-AP not p21. The beads from Stage 1 were incubated with 8 M guanidine-HCl for removing bound proteins and DMF for removing blue color followed by PBST washing and re-blocking with PBST. And then the beads were incubated with GST alone, washed, incubated with anti-GST-AP, washed, and incubated with the phosphatase substrate BCIP. From this step, the clear beads were considered true positive beads, therefore they were selected and deproteinated with 8 M guanidine-HCl prior to decoding with mass spectrometry.

ACHN and A-498 cells [4] = experiment: Apoptosis by PARP cleavage (immunoblot) in RCC cells; conditions: up to 72 h
Experimental: Cells were harvested and immunoblotted with p57, p27, and p21. […] Cells were harvested and immunoblotted with PARP and p21. β-actin is a gel-loading control.
Cells were washed with PBS and lysed in lysis buffer (50 mM HEPES, 1% Triton X-100, 10 mM sodium pyrophosphate, 100 mM sodium fluoride, 4 mM EDTA) at 0° C. Cell lysates were centrifuged (13,000×g, 4° C., 20 min) and the supernatants were electrophoresed and immunoblotted. For immunoprecipitation, cell lysates were incubated with p21 antibody agarose-conjugate overnight at 4° C. and immunoprecipitates were washed five times with lysis buffer. The bound proteins were eluted with SDS sample buffer and elctophoresed and immnoblotted. The membranes were blocked in 5% non-fat dry milk for 1 hr at room temperature, and probed with appropriate antibodies. Membranes were then probed with HRP-tagged anti-mouse or anti-rabbit IgG antibodies diluted 1:5,000-1:15,000 in 5% non-fat dry milk for 1 hr at room temperature. Chemiluminescence was detected using enhanced ECL.

p21 [5] = target: T1, p21; experiment: p21 stability with cycloheximide or proteasome inhibitors (immunoblot); type: cell-based; conditions: ACHN and A-498 cells; 100 μM; with cycloheximide 10 μg/ml or proteasome inhibitors (lactacystin, LLnL, MG132, 20 μM)
Experimental: ACHN and A-498 cells were incubated in serum-free media for 16 hr and treated with (a) compound 10 (100 μM), cycloheximide (CHX, 10 μg/ml), or compound 10 plus CHX for the indicated time, or (b) three different proteasome inhibitors (lactascystin, 20 μM; LLnL, 20 μM; MG132, 20 μM) for 6 h and followed by incubation of compound 10 (100 μM) for the indicated time. The density ratio of p21/actin is shown. Q refers to cells incubated in serum-free media only; P refers to cells incubated with PDGF only.
as §2

p21 [6] = target: T1, p21; experiment: p21 ubiquitinylation (immunoprecipitation with p21 antibody, ubiquitin immunoblot); type: cell-based; conditions: ACHN and A-498 cells; 100 μM
Experimental: ACHN and A-498 cells were incubated in serum-free media for 16 hr and treated or not treated with compound 10 (100 μM) for the indicated times. Cells were harvested and immunoprecipitated with p21 antibody-agarose conjugate and immuno-blotted with either p21 or ubiquitin. Ponceau-staining heavy chain of anti-p21-IgG was performed on the same lysate as loading control.
as §2

ACHN and A-498 cells [7] = experiment: MTT synergy assay with doxorubicin; type: cell-based, human; conditions: 100 μM, after 6 h doxorubicin 0.1 and 0.25 μM for 42 h
Experimental: (§3) After 6 h, doxorubicin was added (0.1 and 0.25 μM) in serum containing media followed in 42 h by (a) the MTT assay as described below; and (b) immunoblotting with PARP, p21, and β-actin.
as §1

ACHN and A-498 cells [8] = experiment: Apoptosis (PARP immunoblot) in combination with doxorubicin; type: cell-based, human; conditions: 100 μM, after 6 h doxorubicin 0.1 and 0.25 μM for 42 h
Experimental: as §3, §2

T1 sequence (P38936 whole entry): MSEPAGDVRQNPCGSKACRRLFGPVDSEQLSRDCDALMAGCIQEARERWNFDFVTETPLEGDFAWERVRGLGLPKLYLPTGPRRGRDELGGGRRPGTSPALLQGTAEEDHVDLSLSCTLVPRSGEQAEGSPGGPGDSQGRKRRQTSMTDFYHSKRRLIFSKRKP
T2 sequence (P38936 whole entry): as above

| Compound | cell survival / cell viability (MTT assay) (kidney cancer cell lines) | cell survival / cell viability (MTT assay) (ACHN and A-498 cells [1]) | p21 protein levels (p21 [2]) | p27 protein levels (p27) | p57 protein levels (p57) | binding to p21 [3] | apoptosis as measured by PARP cleavage (ACHN and A-498 cells [4]) | other results |
| --- | --- | --- | --- | --- | --- | --- | --- | --- |
| Cc1ccccc1NC(=O)NC(CC(N)=O)c1ccc2c(c1)nc(-c1cccc(Oc3ccc(C(C)(C)C)cc3)c1)n2CCCN1CCCCC1C (centres unmarked) [LLW15] | dose-dependent inhibition of cell survival; also recorded: decreasing cell viability |  |  |  |  |  |  |  |
| CCN(CC)CCCn1c(-c2cccc(Oc3ccc(C(C)(C)C)cc3)c2)nc2cc(C(CC(N)=O)NC(=O)Nc3ccccc3C)ccc21 (centres unmarked) [LLW33] | dose-dependent inhibition of cell survival; also recorded: decreasing cell viability |  |  |  |  |  |  |  |
| Cc1ccccc1NC(=O)NC(CC(N)=O)c1ccc2c(c1)nc(-c1cccc(Oc3ccc(C(C)(C)C)cc3)c1)n2CCCN1CCCC1 (centres unmarked) [LLW36] | dose-dependent inhibition of cell survival; also recorded: decreasing cell viability |  |  |  |  |  |  |  |
| Cc1ccccc1NC(=O)NC(CC(N)=O)c1ccc2c(c1)nc(-c1cccc(Oc3ccc(C(C)(C)C)cc3)c1)n2CCC1CCCCN1C (centres unmarked) [LLW38] | dose-dependent inhibition of cell survival; also recorded: decreasing cell viability |  |  |  |  |  |  |  |
| Cc1ccccc1NC(=O)NC(CC(N)=O)c1ccc2c(c1)nc(-c1cccc(Oc3ccc(C(C)(C)C)cc3)c1)n2CCCN1CCC(C)CC1 (centres unmarked) [LLW39] | dose-dependent inhibition of cell survival; also recorded: decreasing cell viability |  |  |  |  |  |  |  |
| Cc1ccccc1NC(=O)NC(CC(N)=O)c1ccc2c(c1)nc(-c1cccc(Oc3ccc(C(C)(C)C)cc3)c1)n2CC[C@@H]1CCCN2CCCC[C@H]12 (some centres unmarked) [LLW40] | dose-dependent inhibition of cell survival; also recorded: decreasing cell viability |  |  |  |  |  |  |  |
| Cc1ccccc1NC(=O)NC(CC(N)=O)c1ccc2c(c1)nc(-c1cccc(Oc3ccc(C(C)(C)C)cc3)c1)n2C1CCN(Cc2ccccc2)CC1 (centres unmarked) [LLW42] | dose-dependent inhibition of cell survival; also recorded: decreasing cell viability |  |  |  |  |  |  |  |
| Cc1ccc(C)c(-c2nc3cc(C(CC(N)=O)NC(=O)Nc4ccccc4C(C)(C)C)ccc3n2CCCN2CCCCC2C)c1 (centres unmarked) [No. 4] |  | dose-dependent inhibition of cell survival; also recorded: decreased; also recorded: decreasing cell viability | markedly and specifically inhibited | no affect | no affect | p21-binding | increased |  |
| Cc1ccc(C)c(-c2nc3cc(C(CC(N)=O)NC(=O)Nc4ccccc4C)ccc3n2CCCN2CCCCC2C)c1 (centres unmarked) [No. 7] |  | dose-dependent inhibition of cell survival; also recorded: decreased; also recorded: decreasing cell viability | markedly and specifically inhibited | no affect | no affect | p21-binding | increased |  |
| Cc1ccccc1NC(=O)NC(CC(N)=O)c1ccc2c(c1)nc(-c1c3ccccc3cc3ccccc13)n2CCCN1CCCCC1C (centres unmarked) [No. 10] |  | dose-dependent inhibition of cell survival; also recorded: decreased; also recorded: decreasing cell viability | markedly and specifically inhibited | no affect | no affect | p21-binding | increased | p21 stability (p21 [5]): decreases p21 stability via a proteasome-mediated pathway; ubiquitinylation of p21 (p21 [6]): causes ubiquitinylation of p21; also recorded: p21 protein is bound by ubiquitin; cell survival in combination with doxorubicin (MTT assay) (ACHN and A-498 cells [7]): synergistic decrease in cell survival; also recorded: synergistic anti-proliferative activity; apoptosis in combination with doxorubicin (PARP immunoblot) (ACHN and A-498 cells [8]): increase in apoptosis |
